Source: patent US9611256B2, “Alkyne-, azide- and triazole-containing flavonoids as modulators for multidrug resistance in cancers” (The Hong Kong Polytechnic University, priority 2012, dated 2017)

Experiments:
in vitro = details: mouse
BCRP [1] = biological target: T1, BCRP (Homo sapiens, UniProt Q9UNQ0); assay: cell-based
T1 sequence (Q9UNQ0 1-655): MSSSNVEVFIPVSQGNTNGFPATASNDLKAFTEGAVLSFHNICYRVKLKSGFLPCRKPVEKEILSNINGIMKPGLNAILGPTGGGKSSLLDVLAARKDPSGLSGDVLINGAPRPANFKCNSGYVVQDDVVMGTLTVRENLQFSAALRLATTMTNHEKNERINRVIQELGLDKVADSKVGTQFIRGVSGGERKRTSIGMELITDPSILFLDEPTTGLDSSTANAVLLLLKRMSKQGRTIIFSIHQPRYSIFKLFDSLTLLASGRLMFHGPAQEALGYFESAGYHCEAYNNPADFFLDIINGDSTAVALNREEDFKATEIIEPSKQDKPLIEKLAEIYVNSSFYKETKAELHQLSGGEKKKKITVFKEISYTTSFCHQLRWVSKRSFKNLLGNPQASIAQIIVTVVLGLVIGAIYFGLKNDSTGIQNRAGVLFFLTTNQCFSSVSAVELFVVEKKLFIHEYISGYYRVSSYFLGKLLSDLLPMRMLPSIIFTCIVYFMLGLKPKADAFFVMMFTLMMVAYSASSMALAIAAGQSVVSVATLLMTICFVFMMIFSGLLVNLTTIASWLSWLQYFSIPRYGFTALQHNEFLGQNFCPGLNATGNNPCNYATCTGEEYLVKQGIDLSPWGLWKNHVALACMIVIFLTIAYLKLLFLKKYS

[2] = tested on: P-gp, MRP1 and BCRP transporters; assay: Selectivity for ABC transporters, determined from % of reversion (Tables 1 and 2); assay type: cell-based, human; details: determined from % of reversion in Table 1 (>80% strongly, 79-50% moderately selective)
Source text: Generally, the triazole dimers library can be divided into mono-selective, dual-selective and multi-selective ABC transporter modulators. Table 2 summarizes the selectivity of different active triazole dimers and some monomeric azides for the ABC transporters. […] From the study, it seems that the simple monomeric azides could be a highly BCRP-selective inhibitor. […] It is possible that differently selective (mono-, dual- and multi-) inhibitors of drug transporters could be potentially useful tools for investigation of complicated drug-resistance phenotypes and eventually, for treatment of drug-resistant cancers caused by overexpression of ABC transporters.
The selectivity of active triazole compounds for various ABC transporters was determined from the Table 1. It would be considered as strongly selective if it causes >80% of reversion. It would be considered as moderately selective if it results in 79-50% of reversion. Overall, the active triazole compounds can be divided into mono-, dual- and multi-selective for P-gp, MRP1 and BCRP transporters.

BCRP [3] = biological target: T1, BCRP; assay: Reversal of BCRP-mediated topotecan resistance in MCF7-MX100 cells (cell proliferation assay); details: for Topotecan resistance of MCF7-MX100 Therapeutic index: (IC50 towards L929 or Raw264.7)/(EC50 for reversing drug resistance); for % of reversion of sensitivity of MCF7-MX100 towards topotecan: triazole dimers at 1.0 μM
MRP1 = MRP1 (Homo sapiens, UniProt P33527); assay: Reversal of MRP1-mediated DOX resistance in 2008/MRP1 cells (cell proliferation assay); details: for % of reversion of sensitivity of 2008/MRP1 towards DOX: triazole dimers at 1.0 μM; for DOX resistance of 2008/MRP1 Therapeutic index: (IC50 towards L929 or Raw264.7)/(EC50 for reversing drug resistance)
MRP1, sequence (P33527 whole entry): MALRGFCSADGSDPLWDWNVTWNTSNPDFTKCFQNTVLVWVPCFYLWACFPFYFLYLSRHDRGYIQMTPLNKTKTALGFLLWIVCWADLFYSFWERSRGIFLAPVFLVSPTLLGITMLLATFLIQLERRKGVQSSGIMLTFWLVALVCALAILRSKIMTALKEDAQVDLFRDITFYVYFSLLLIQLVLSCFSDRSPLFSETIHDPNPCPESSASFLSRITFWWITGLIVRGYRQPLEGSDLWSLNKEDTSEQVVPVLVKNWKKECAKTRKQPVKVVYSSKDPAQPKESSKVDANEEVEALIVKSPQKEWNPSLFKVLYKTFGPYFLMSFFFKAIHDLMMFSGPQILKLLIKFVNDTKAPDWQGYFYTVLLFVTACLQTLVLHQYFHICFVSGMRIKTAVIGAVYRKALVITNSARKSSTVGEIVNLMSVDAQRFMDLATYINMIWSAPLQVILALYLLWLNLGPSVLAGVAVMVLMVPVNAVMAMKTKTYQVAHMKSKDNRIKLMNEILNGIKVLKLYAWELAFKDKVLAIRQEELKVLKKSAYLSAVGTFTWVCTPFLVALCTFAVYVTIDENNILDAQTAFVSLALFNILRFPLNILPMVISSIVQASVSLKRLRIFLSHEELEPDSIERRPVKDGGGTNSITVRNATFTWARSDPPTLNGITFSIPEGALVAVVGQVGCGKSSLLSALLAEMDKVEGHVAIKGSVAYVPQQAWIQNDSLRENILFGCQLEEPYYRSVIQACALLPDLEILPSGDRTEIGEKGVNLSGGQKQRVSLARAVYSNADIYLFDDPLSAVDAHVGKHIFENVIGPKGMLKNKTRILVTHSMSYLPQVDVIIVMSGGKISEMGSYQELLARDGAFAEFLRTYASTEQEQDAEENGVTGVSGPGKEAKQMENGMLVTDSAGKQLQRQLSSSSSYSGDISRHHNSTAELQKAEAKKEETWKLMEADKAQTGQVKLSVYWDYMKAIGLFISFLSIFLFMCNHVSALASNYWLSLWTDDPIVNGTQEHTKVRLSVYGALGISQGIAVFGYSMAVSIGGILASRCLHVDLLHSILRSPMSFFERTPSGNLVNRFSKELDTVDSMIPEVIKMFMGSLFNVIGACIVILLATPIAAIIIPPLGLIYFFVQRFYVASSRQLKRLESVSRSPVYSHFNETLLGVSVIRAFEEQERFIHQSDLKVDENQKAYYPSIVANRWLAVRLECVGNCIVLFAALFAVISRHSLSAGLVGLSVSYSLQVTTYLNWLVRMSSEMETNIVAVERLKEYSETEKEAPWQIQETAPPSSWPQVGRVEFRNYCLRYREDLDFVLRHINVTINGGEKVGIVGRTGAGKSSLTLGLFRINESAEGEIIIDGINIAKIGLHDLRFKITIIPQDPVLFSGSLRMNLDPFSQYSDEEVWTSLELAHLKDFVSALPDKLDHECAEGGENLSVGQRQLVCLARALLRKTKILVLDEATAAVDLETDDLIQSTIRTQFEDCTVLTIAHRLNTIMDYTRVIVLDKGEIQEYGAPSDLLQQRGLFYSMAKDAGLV

| IC50 at 5 days (in vitro) [nM] | EC50 (BCRP [1]) [nM] | Selectivity for ABC transporters (P-gp, MRP1, BCRP) [2] | % of reversion of sensitivity of 2008/MRP1 towards DOX (MRP1) | SMILES | Topotecan resistance of MCF7-MX100 Therapeutic index (BCRP [3]) | % of reversion of sensitivity of MCF7-MX100 towards topotecan (BCRP [3]) | DOX resistance of 2008/MRP1 Therapeutic index (MRP1) |
| --- | --- | --- | --- | --- | --- | --- | --- |
| > 100000 | 18 | – | – | Cc1ccc2oc(-c3ccc(OCCCCc4cn(CCOCCOCCOc5ccc(-c6cc(=O)c7cc(F)ccc7o6)cc5)nn4)cc3)cc(=O)c2c1 [Ac5Az4, 6-Fluoro-2-(4-(2-(2-(2-(4-(4-(4-(6-methyl-4-oxo-4H-chromen-2-yl)phenoxy)butyl)-1H-1,2,3-triazol-1-yl)ethoxy)ethoxy)ethoxy)phenyl)-4H-chromen-4-one] | – | – | – |
| > 100000 | 33 | Pgp- and BCRP-dual selectivity | – | Cc1ccc2oc(-c3ccc(OCCCCc4cn(CCOCCOCCOc5ccc(-c6oc7ccccc7c(=O)c6OCc6ccccc6)cc5)nn4)cc3)cc(=O)c2c1 [Ac5Az5, 3-(Benzyloxy)-2-(4-(2-(2-(2-(4-(4-(4-(6-methyl-4-oxo-4H-chromen-2-yl)phenoxy)butyl)-1H-1,2,3-triazol-1-yl)ethoxy)ethoxy)ethoxy)phenyl)-4H-chromen-4-one] | – | – | – |
| > 100000 | ≤ 10 | Pgp- and BCRP-dual selectivity | – | COC(=O)c1cccc(COc2c(-c3ccc(OCCOCCn4cc(CCCCOc5ccc(-c6cc(=O)c7cc(C)ccc7o6)cc5)nn4)cc3)oc3ccccc3c2=O)c1 [Ac5Az8, Methyl 3-(((2-(4-(2-(2-(4-(4-(4-(6-methyl-4-oxo-4H-chromen-2-yl)phenoxy)butyl)-1H-1,2,3-triazol-1-yl)ethoxy)ethoxy)phenyl)-4-oxo-4H-chromen-3-yl)oxy)methyl)benzoate] | >25000.0 | about 64.0% | – |
| – | – | MRP1- and BCRP-dual selectivity | ~54.8% | O=C(/C=C/c1ccc(OCCCCc2cn(CCOCCOc3ccc(-c4cc(=O)c5ccccc5o4)cc3)nn2)cc1)c1ccc(F)cc1O [Ac10Az1, (E)-2-(4-(2-(2-(4-(4-(4-(3-(4-Fluoro-2-hydroxyphenyl)-3-oxoprop-1-en-1-yl)phenoxy)butyl)-1H-1,2,3-triazol-1-yl)ethoxy)ethoxy)phenyl)-4H-chromen-4-one] | – | – | – |
| > 100000 | ≤ 10 | Pgp- and BCRP-dual selectivity | – | COC(=O)c1cccc(COc2c(-c3ccc(OCCOCCOCCn4cc(COCCOc5ccc6c(=O)cc(-c7ccccc7)oc6c5)nn4)cc3)oc3ccccc3c2=O)c1 [Ac13Az9] | >50000.0 | about 80.0% | – |
| > 100000 | 111 ± 9 | MRP1- and BCRP-dual selectivity | – | O=c1cc(-c2ccc(OCCOCCn3cc(CN(Cc4ccccc4)Cc4cn(CCOCCOc5ccc(-c6cc(=O)c7ccccc7o6)cc5)nn4)nn3)cc2)oc2ccccc12 [Ac15Az1, 2,2′-((((((4,4′-((Benzylazanediyl)bis(methylene))bis(1H-1,2,3-triazole-4,1-diyl))bis(ethane-2,1-diyl))bis(oxy))bis(ethane-2,1-diyl))bis(oxy))bis(4,1-phenylene))bis(4H-chromen-4-one)] | – | – | – |
| > 100000 | 48 | mono-BCRP selectivity | – | O=c1c(OCc2ccccc2)c(-c2ccc(OCCOCCOCCn3cc(CN(Cc4ccccc4)Cc4cn(CCOCCOCCOc5ccc(-c6oc7ccccc7c(=O)c6OCc6ccccc6)cc5)nn4)nn3)cc2)oc2ccccc12 [Ac15Az5, 2,2′-((((((((4,4′-((Benzylazanediyl)bis(methylene))bis(1H-1,2,3-triazole-4,1-diyl))bis(ethane-2,1-diyl))bis(oxy))bis(ethane-2,1-diyl))bis(oxy))bis(ethane-2,1-diyl))bis(oxy))bis(4,1-phenylene))bis(3-(benzyloxy)-4H-chromen-4-one)] | – | – | – |
| > 100000 | – | mono-MRP1 selectivity | – | Cc1ccc2oc(-c3ccc(OCCOCCOCCn4cc(CN(CCOc5ccc6c(=O)cc(-c7ccccc7)oc6c5)Cc5ccccc5)nn4)cc3)cc(=O)c2c1 [Ac16Az3, 7-(2-(Benzyl((1-(2-(2-(2-(4-(6-methyl-4-oxo-4H-chromen-2-yl)phenoxy)ethoxy)ethoxy)ethyl)-1H-1,2,3-triazol-4-yl)methyl)amino)ethoxy)-2-phenyl-4H-chromen-4-one] | – | – | >726.2 |
| > 100000 | – | mono-MRP1 selectivity | about 77.8% | O=c1cc(-c2ccccc2)oc2cc(OCCN(Cc3ccccc3)Cc3cn(CCOCCOCCOc4ccc(-c5oc6ccccc6c(=O)c5OCc5ccccc5)cc4)nn3)ccc12 [Ac16Az5, 7-(2-(Benzyl((1-(2-(2-(2-(4-(3-(benzyloxy)-4-oxo-4H-chromen-2-yl)phenoxy)ethoxy)ethoxy)ethyl)-1H-1,2,3-triazol-4-yl)methyl)amino)ethoxy)-2-phenyl-4H-chromen-4-one] | – | – | >331.5 |
| > 100000 | – | mono-MRP1 selectivity | – | O=c1cc(-c2ccccc2)oc2cc(OCCOCCOCCn3cc(CN(CCOc4ccc5c(=O)cc(-c6ccccc6)oc5c4)Cc4ccccc4)nn3)ccc12 [Ac16Az12, 7-(2-(Benzyl((1-(2-(2-(2-((4-oxo-2-phenyl-4H-chromen-7-yl)oxy)ethoxy)ethoxy)ethyl)-1H-1,2,3-triazol-4-yl)methyl)amino)ethoxy)-2-phenyl-4H-chromen-4-one] | – | – | >480.8 |
| 51000 | 32 | mono-BCRP selectivity | – | [N-]=[N+]=NCCOCCOc1ccc(-c2oc3ccccc3c(=O)c2OCc2ccccc2)cc1 [Az10, 2-(4-(2-(2-Azidoethoxy)ethoxy)phenyl)-3-(benzyloxy)-4H-chromen-4-one] | – | – | – |

| SMILES | IC50 at 5 days (in vitro) [nM] | EC50 (BCRP [1]) [nM] | Selectivity for ABC transporters (P-gp, MRP1, BCRP) [2] | % of reversion of sensitivity of 2008/MRP1 towards DOX (MRP1) | Topotecan resistance of MCF7-MX100 Therapeutic index (BCRP [3]) | % of reversion of sensitivity of MCF7-MX100 towards topotecan (BCRP [3]) | DOX resistance of 2008/MRP1 Therapeutic index (MRP1) |
| --- | --- | --- | --- | --- | --- | --- | --- |
| COC(=O)c1cccc(COc2c(-c3ccc(OCCOCCOCCn4cc(CCCCOc5ccc(-c6cc(=O)c7cc(C)ccc7o6)cc5)nn4)cc3)oc3ccccc3c2=O)c1 [Ac5Az9, Methyl 3-(((2-(4-(2-(2-(2-(4-(4-(4-(6-methyl-4-oxo-4H-chromen-2-yl)phenoxy)butyl)-1H-1,2,3-triazol-1-yl)ethoxy)ethoxy)ethoxy)phenyl)-4-oxo-4H-chromen-3-yl)oxy)methyl)benzoate] | > 100000 | ≤ 10 | multi-selectivity towards P-gp, MRP1 and BCRP transporters | – | >111111.1 | about 64.0% | – |
| COC(=O)c1cccc(COc2c(-c3ccc(OCCOCCn4cc(CCCCOc5ccc6c(=O)cc(-c7ccccc7)oc6c5)nn4)cc3)oc3ccccc3c2=O)c1 [Ac12Az8, Methyl 3-(((4-oxo-2-(4-(2-(2-(4-(4-((4-oxo-2-phenyl-4H-chromen-7-yl)oxy)butyl)-1H-1,2,3-triazol-1-yl)ethoxy)ethoxy)phenyl)-4H-chromen-3-yl)oxy)methyl)benzoate] | > 100000 | ≤ 10 | multi-selectivity towards P-gp, MRP1 and BCRP transporters | – | >17857.1 | about 80.0% | – |
| COC(=O)c1cccc(COc2c(-c3ccc(OCCOCCOCCn4cc(CCCCOc5ccc6c(=O)cc(-c7ccccc7)oc6c5)nn4)cc3)oc3ccccc3c2=O)c1 [Ac12Az9, Methyl 3-(((4-oxo-2-(4-(2-(2-(2-(4-(4-((4-oxo-2-phenyl-4H-chromen-7-yl)oxy)butyl)-1H-1,2,3-triazol-1-yl)ethoxy)ethoxy)ethoxy)phenyl)-4H-chromen-3-yl)oxy)methyl)benzoate] | > 100000 | ≤ 10 | multi-selectivity towards P-gp, MRP1 and BCRP transporters | – | >71428.6 | about 80.0% | – |
